Data: PMC9315884, “New Membrane Active Antibacterial and Antiviral Amphiphiles Derived from Heterocyclic Backbone of Pyridinium-4-Aldoxime” (Pharmaceuticals, 2022)
Where “and” joins values, the source holds several entries; their conditions need not be identical. Identical values can stand only once. Like-named read-outs stand apart in the source and are kept apart here.

Columns and labels:
[1] = tested on: Tobacco mosaic virus (TMV); assay: Antiphytoviral activity assay (local lesions on host plant leaves); assay type: in vivo, Tobacco mosaic virus on Datura stramonium; details: Datura stramonium leaves
Experimental: Leaves of Nicotiana tabacum L. cv. Samsun plants systemically infected with Tobacco mosaic virus (TMV) were ground in 0.06 mol/L phosphate buffer, pH 7.0 (1:1, w/v) to prepare virus inocula. […] Leaves of the local host Datura stramonium L. were dusted with silicon carbide (Sigma-Aldrich, St. Louis, MO, USA) before virus inoculation, and the inoculum was diluted with inoculation buffer to obtain 5–20 lesions per inoculated leaf. Experiments were performed when the experimental plants reached the 4–6 leaf stage.
The tested QAS (10 mg/mL) were dissolved in 4% DMSO and added to the virus inocula at a final concentration of 100 µg/mL. DMSO was added to the control virus inocula at the same concentration. The control and treated plants were then rubbed with the prepared inocula and the antiviral activity of the tested compounds was evaluated by the percentage inhibition of the number of local lesions on the leaves of the treated and control plants as described in [40]. The obtained data were analyzed in Excel (Microsoft Office) and significant differences were determined by t-test.

[2] = tested on: Escherichia coli ATCC25922; assay: Broth microdilution assay (MIC); assay type: cell-based; details: ATCC25922, 18 h
Experimental: (§1) The antibacterial activity of all compounds was evaluated by determining the minimum inhibitory concentration (MIC), which is defined as the lowest concentration of the compound at which no visible bacterial growth is detected. The compounds were tested against representatives of Gram-positive and Gram-negative strains, including the ESKAPE bacterium Staphylococcus aureus ATCC25923 and the clinical isolate of methicillin-resistant S. aureus (MRSA), which are known for their pathogenicity.
(§2) All microbial strains were maintained at ™80 °C for long-term storage and subcultured on Mueller-Hinton (MH) agar (Biolife, Italy) prior to broth microdilution experiments. The MH plates were stored at +4 °C for no longer than one month.
(§3) Antibacterial activity was evaluated using the Broth Microdilution Assay according to the Clinical and Laboratory Standard Institute’s Methods for Dilution Antimicrobial Susceptibility Test for Bacteria That Grow Aerobically; Approved Standard-Tenth Edition.
(§4) The stock solution of QAS (10 mg/mL) was prepared in 4% DMSO. Then, 100 µL of the tested QAS was added to the first well of the microtiter plate. Twofold serial dilutions in Muller-Hinton broth were performed over the entire plate at a concentration range of 5 mg/mL to 5 µg/mL. […] The minimum inhibitory concentration (MIC) was determined as the lowest concentration at which no visually detectable bacterial growth occurred in the wells.

[3] = tested on: Listeria monocytogenes ATCC7644; assay: Broth microdilution assay (MIC); assay type: cell-based
Experimental: as §1, §2, §3, §4

[4] = tested on: Pseudomonas aeruginosa ATCC27853; assay: Broth microdilution assay (MIC); assay type: cell-based
Experimental: as §1, §2, §3, §4

[5] = tested on: Enterococcus faecalis ATCC29212; assay: Broth microdilution assay (MIC); assay type: cell-based
Experimental: as §1, §2, §3, §4

[6] = tested on: Bacillus cereus ATCC14579; assay: Broth microdilution assay (MIC); assay type: cell-based
Experimental: as §1, §2, §3, §4

[7] = tested on: Staphylococcus aureus ATCC25923; assay: Broth microdilution assay (MIC); assay type: cell-based; details: for MIC: Staphylococcus aureus
Experimental: as §1, §2, §3, §4

HaCaT cells = assay: Cytotoxicity (MTS assay); details: 48 h
Experimental: (§5) Keratinocytes are the primary cell type found in the outermost layer of the skin. Therefore, HaCaT cells were used as a model for human skin, and RPE1 are retinal pigment epithelial cells, thus a model for epithelial cell type.
(§6) Cells were grown in DMEM media in a humidified environment with 5% CO2 and 37 °C. To determine cytotoxicity, a twofold serial dilution of a tested compound starting at 5 mg/mL was prepared in a 96-well plate. Five thousand cells were pipetted into each well, and the cells were grown for an additional 48 h. Then, the reagent MTS (20 μL) was added to the cells according to the manufacturer’s instructions (CellTiter 96® Aqueous One Solution Cell Proliferation Assay, Promega). After 3 h of incubation, the absorbance was measured at 490 nm. IC50 values were determined by plotting compound concentration against absorbance using GraFit6 software.

RPE1 cells = assay: Cytotoxicity (MTS assay); details: 48 h
Experimental: as §5, §6

[8] = tested on: Salmonella enterica food isolate; assay: Broth microdilution assay (MIC); assay type: cell-based; details: 18 h, S. enterica food isolate
Experimental: as §1
(§7) The collection included five Gram-positive strains, including Staphylococcus aureus (ATCC 25923 and a methicillin-resistant Staphylococcus aureus clinical strain MRSA), Bacillus cereus ATCC 14579, Enterococcus faecalis ATCC 29212, and Listeria monocytogenes ATCC 7644; and three Gram-negative strains: Escherichia coli ATCC 25922, Pseudomonas aeruginosa ATCC 27853 and the food isolate Salmonella enterica. All microbial strains were maintained at ™80 °C for long-term storage and subcultured on Mueller-Hinton (MH) agar (Biolife, Italy) prior to broth microdilution experiments. The MH plates were stored at +4 °C for no longer than one month.
as §3
(§8) The stock solution of QAS (10 mg/mL) was prepared in 4% DMSO. Then, 100 µL of the tested QAS was added to the first well of the microtiter plate. Twofold serial dilutions in Muller-Hinton broth were performed over the entire plate at a concentration range of 5 mg/mL to 5 µg/mL. To each well, 50 µL of mid-exponentially grown inoculum containing 10^5 CFU/mL in Mueller-Hinton broth was added and incubated at 37 °C for 18 hours. The minimum inhibitory concentration (MIC) was determined as the lowest concentration at which no visually detectable bacterial growth occurred in the wells.

[9] = tested on: methicillin-resistant Staphylococcus aureus clinical strain MRSA; assay: Broth microdilution assay (MIC); assay type: cell-based
Experimental: as §1, §7, §3, §8

Escherichia coli DH5α = assay: MIC determination before AFM; assay type: cell-based
[10] = tested on: Escherichia coli DH5α cells; assay: AFM, bright-field and SYTO9/PI fluorescence microscopy of treated cells; assay type: cell-based; details: E. coli DH5α
Experimental: Optical and atomic force microscopy of the immobilized untreated and treated cells was performed to visualize the effect of Py-C12 on the bacterial membrane. For these experiments we used Escherichia coli DH5α cells because these cells allowed solid immobilization with persevered cell viability.
After making sure that the cells were properly immobilized and proliferating (a few new generations of cells were observed via optical microscopy), we started the treatment. To accelerate the process of time-dependent membrane damage, the cells were treated with the 4xMIC of Py-C12 for three hours after which the sample was rinsed with the fresh growth medium.
To estimate the percentage of cells whose membrane had been permeabilized by the treatment, the same group of cells was stained simultaneously with two fluorescent nucleic dyes, SYTO9 and propidium iodide (PI). […] When applied together, PI tends to displace SYTO9 from nucleic acid and the cells fluorescence in red. […]
AFM measurements of immobilized cells, both untreated and treated, were performed using the Nano-wizard IV system (JPK/Bruker, Berlin, Germany) operating in quantitative imaging (QI) mode with SNL-B probes (Bruker, Billerica, MA, USA). The AFM system was integrated with an IX73 inverted fluorescence optical microscope (Olympus, Tokyo, Japan). […]

[11] = compound 100 µg/mL inoculated simultaneously with TMV

SMILES | Number of local lesions (LLN ± SD) [1, 11] | MIC [2] | MIC ([3]; ATCC7644, 18 h) | MIC ([4]; ATCC27853, 18 h) | MIC ([5]; ATCC29212, 18 h) | MIC ([6]; ATCC14579, 18 h) | MIC ([7]; ATCC25923, 18 h) | Cytotoxicity in words (HaCaT cells) | Cytotoxicity in words (RPE1 cells) | MIC [8] | MIC ([9]; MRSA, 18 h) | also measured
CCCCCCCCCCCCCC[n+]1ccc(C=NO)cc1 [Py-C14] | 1.0±0.4 | 630 µg/mL and 1580 µM | 310 µg/mL and 780 µM | 2500 µg/mL and 6260 µM | 310 µg/mL and 780 µM | 1250 µg/mL | 80 µg/mL | moderately toxic | moderately toxic | 2500 µg/mL and 6260 µM | 160 µg/mL | fold higher LLN than the control BAB ([1]; 100 µg/mL): 5 fold
CCCCCCCCCCCC[n+]1ccc(C=NO)cc1 [Py-C12] | 3.0±1.1 | 630 µg/mL and 1700 µM | 630 µg/mL and 1700 µM | 2500 µg/mL and 6730 µM | 630 µg/mL and 1700 µM | 1250 µg/mL | 80 µg/mL |  |  | 630 µg/mL and 1700 µM | 310 µg/mL | MIC against E. coli DH5α in words (Escherichia coli DH5α): equivalent to that of E. coli ATTC 25922; Percentage of inhibition of local lesions ([1]; compound 100 µg/mL inoculated simultaneously with TMV, vs control plants): 78.1%; effect on number of bacterial cells (bright-field) ([10]; 4xMIC, 3 h): bacteriostatic effect; percentage of permeabilized cells ([10]; 4 × MIC, 3 h treatment, SYTO9/PI staining, 344 cells): 87%
CCCCCCCCCCCCCCCC[n+]1ccc(C=NO)cc1 [Py-C16] |  | 160 µg/mL and 370 µM | 1250 µg/mL and 2920 µM | 2500 µg/mL and 5850 µM | 2500 µg/mL and 5850 µM | 160 µg/mL | 40 µg/mL | moderately toxic | moderately toxic | 5000 µg/mL and 11700 µM | 160 µg/mL | fold higher MIC than CPC ([7]; S. aureus ATCC25923): 28 fold; fold higher MIC than cefotaxime ([7]; S. aureus ATCC25923): 10 fold; MIC ([9]; MRSA): 160 µg/mL
ON=Cc1ccncc1 [Py-4-ox, pyridine-4-aldoxime, reference compound] |  |  |  |  |  |  |  | moderately toxic | moderately toxic | 5000 µg/mL and 40900 µM |  | MIC ([2]; E. coli ATCC25922, read-out: MIC): > 5000 µg/mL and > 40900 µM; MIC ([3]; 18 h, L. monocytogenes ATCC7644, read-out: MIC): > 5000 µg/mL and > 40900 µM; MIC ([4]; 18 h, P. aeruginosa ATCC27853, read-out: MIC): > 5000 µg/mL and > 40900 µM; MIC ([5]; 18 h, E. faecalis ATCC29212, read-out: MIC): 5000 µg/mL and 40900 µM; MIC ([6]; 18 h, B. cereus ATCC14579, read-out: MIC): > 5000 µg/mL; MIC ([7]; S. aureus ATCC25923, 18 h, 37 °C, read-out: MIC): > 5000 µg/mL; MIC ([9]; 18 h, S. aureus clinical/MRSA, read-out: MIC): > 5000 µg/mL
